In patent publication US9796719B2, “Compounds and pharmaceutical compositions thereof for the treatment of inflammatory disorders” (GALAPAGOS NV, priority 2013, dated 2017):

What was measured:
[1] = biological target: T1, hENPP2 (UniProtKB/SwissProt Sequence ref Q13822) (Homo sapiens (Human), UniProt Q13822); experiment: LPC hENPP2 assay (choline release, LPC as substrate); assay type: biochemical
Outline: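 Choline released from LPC by ENPP2 is quantified after stopping with stop-developer containing 0.6 U/mL choline oxidase, 0.6 U/mL peroxidase, 1.8 mM TOOS, 1.2 mM amino-antipyrine and 20 mM EGTA. Quinoneimine dye read at 555 nm after 30 min at room temperature.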

[2] = biological target: T1, hENPP2; experiment: FS3 hENPP2 assay (fluorogenic substrate FS-3); assay type: biochemical; settings: hENPP2, FS-3 as substrate
Protocol: Compound IC50 values are determined in a fluorescent hENPP2 (UniProtKB/SwissProt Sequence ref Q13822) biochemical assay using the fluorogenic autotaxin substrate FS-3 as substrate. FS-3 is a doubly labeled analog of LPC wherein the fluorophore is quenched through intramolecular energy transfer. Without hENPP2, the emission of the probe is quenched. If the substrate is hydrolyzed by hENPP2, the emission of the probe is not quenched anymore resulting in a fluorescence increase. Inhibition of hENPP2 by compounds will result in a decrease of the signal.
10 μL of a dilution series of compound, starting from 20 μM highest concentration, ⅕ dilution, is added to the wells. hENPP2 is used at a final concentration of 0.4 μg/mL or 0.64 μg/mL (it will be appreciated by the skilled person that the potency read out is independent of the enzyme concentration). The enzyme is diluted in 50 mM Tris-HCl pH 8.0, 250 mM NaCl, 5 mM KCl, 1 mM MgCl2, 1 mM CaCl2, 0.1% fatty acid free BSA in a total volume of 20 μL. Enzyme mixture is added to compounds and the resulting mixture is incubated for 30 min at room temperature under shaking. The reaction is started by the addition of 20 μL of 0.75 μM FS-3 diluted in the same buffer as described above and the mixture is incubated at 30° C. for 30 min. Fluorescence is read on the Envision (Excitation 485 nm, emission 520 nm).

IC50 [1] [nM]	IC50 [2] [nM]	SMILES
> 1000	0.01 to 25	CCc1nc2ccc(N3CCCN(C(C)=O)CC3)nn2c1N(C)c1nc(-c2ccc(F)cc2)cs1 [Cpd 115, 1-(4-(2-ethyl-3-((4-(4-fluorophenyl)thiazol-2-yl)(methyl)amino)imidazo[1,2-b]pyridazin-6-yl)-1,4-diazepan-1-yl)ethanone]
> 1000	0.01 to 25	CCc1nc2ccc(N3CC4CN(S(=O)(=O)CCCN5CCOCC5)CC4C3)nn2c1N(C)c1nc(-c2ccc(F)cc2)cs1 (stereo not drawn) [Compound 127, N-(2-ethyl-6-(5-(3-morpholinopropylsulfonyl)hexahydropyrrolo[3,4-c]pyrrol-2(1H)-yl)imidazo[1,2-b]pyridazin-3-yl)-4-(4-fluorophenyl)-N-methylthiazol-2-amine]
> 1000	0.01 to 25	CCc1nc2ccc(N3CCOCC3)nn2c1N(C)c1nc(-c2ccc(F)cc2)cs1 [Cpd 78, N-(2-ethyl-6-morpholinoimidazo [1,2-b]pyridazin-3-yl)-4-(4-fluorophenyl)-N-methylthiazol-2-amine]
0.01 to 100	0.01 to 25	CCc1nc2ccc(C3CCN(CC(=O)N4CC(O)C4)CC3)nn2c1N(C)c1nc(-c2ccc(F)cc2)c(C#N)s1 [Cpd 212, 2-((2-ethyl-6-(1-(2-(3-hydroxyazetidin-1-yl)-2-oxoethyl)piperidin-4-yl)imidazo[1,2-b]pyridazin-3-yl)(methyl)amino)-4-(4-fluorophenyl) thiazole-5-carbonitrile]
> 1000	0.01 to 25	CCc1nc2ccc(N3CC(NC(=O)OC(C)(C)C)C3)nn2c1N(C)c1nc(-c2ccc(F)cc2)cs1 [Cpd 154, [1-(2-Ethyl-3-{[4-(4-fluoro-phenyl)-thiazol-2-yl]-methyl-amino}-imidazo[1,2-b]pyridazin-6-yl)-azetidin-3-yl]-carbamic acid tert-butyl ester]
100 to 500	0.01 to 25	CCc1nc2ccc(N3CCN(CCN4CCCC4=O)CC3)nn2c1N(C)c1nc(-c2ccc(F)cc2)cs1 [Cpd 46, 1-(2-(4-(2-ethyl-3-((4-(4-fluorophenyl)thiazol-2-yl)(methyl)amino)imidazo[1,2-b]pyridazin-6-yl)piperazin-1-yl)ethyl)pyrrolidin-2-one]
500 to 1000	0.01 to 25	CCc1nc2ccc(N3CCC(C(=O)NCCO)CC3)nn2c1N(C)c1nc(-c2ccc(F)cc2)cs1 [Compound 97, 1-(2-ethyl-3-((4-(4-fluorophenyl)thiazol-2-yl)(methyl)amino)imidazo[1,2-b]pyridazin-6-yl)-N-(2-hydroxyethyl)piperidine-4-carboxamide]
500 to 1000	0.01 to 25	CCc1nc2ccc(N3CCC(N4CCOCC4)CC3)nn2c1N(C)c1nc(-c2ccc(F)cc2)cs1 [Cpd 109, N-(2-ethyl-6-(4-morpholino-piperidin-1-yl)imidazo[1,2-b]pyridazin-3-yl)-4-(4-fluorophenyl)-N-methylthiazol-2-amine]
> 1000	0.01 to 25	CCc1nc2ccc(N3CCC(NS(C)(=O)=O)CC3)nn2c1N(C)c1nc(-c2ccc(F)cc2)cs1 [Cpd 83, N-(1-(2-ethyl-3-((4-(4-fluorophenyl)thiazol-2-yl)(methyl)amino)imidazo[1,2-b]pyridazin-6-yl)piperidin-4-yl)methane-sulfonamide]
100 to 500	0.01 to 25	CCc1nc2ccc(N3CCC(=O)C3)nn2c1N(C)c1nc(-c2ccc(F)cc2)c(C#N)s1 [Compound 172, 2-((2-ethyl-6-(3-oxopyrrolidin-1-yl)imidazo[1,2-b]pyridazin-3-yl)(methyl)amino)-4-(4-fluorophenyl)thiazole-5-carbonitrile]
> 1000	0.01 to 25	CCc1nc2ccc(C3=CCN(S(C)(=O)=O)CC3)nn2c1N(C)c1nc(-c2ccc(F)cc2)cs1 [Cpd 194, N-(2-ethyl-6-(1-(methylsulfonyl)-1,2,3,6-tetrahydropyridin-4-yl)imidazo[1,2-b]pyridazin-3-yl)-4-(4-fluorophenyl)-N-methylthiazol-2-amine]
> 1000	0.01 to 25	CCc1nc2ccc(N3CCC(CO)C3)nn2c1N(C)c1nc(-c2ccc(F)cc2)cs1 (stereo not drawn) [Cpd 143, (1-(2-ethyl-3-((4-(4-fluorophenyl)thiazol-2-yl)(methyl)amino)imidazo[1,2-b]pyridazin-6-yl)pyrrolidin-3-yl)methanol]
> 1000	0.01 to 25	CCc1nc2ccc(N3CCC(N4CCSCC4)C3)nn2c1N(C)c1nc(-c2ccc(F)cc2)cs1 (stereo not drawn) [Cpd 131, N-(2-ethyl-6-(3-thiomorpholino-pyrrolidin-1-yl)imidazo[1,2-b]pyridazin-3-yl)-4-(4-fluorophenyl)-N-methylthiazol-2-amine]
> 1000	0.01 to 25	CCc1nc2ccc(N3CCC(N)CC3)nn2c1N(C)c1nc(-c2ccc(F)cc2)cs1 [Cpd 82, N-(6-(4-aminopiperidin-1-yl)-2-ethylimidazo[1,2-b]pyridazin-3-yl)-4-(4-fluorophenyl)-N-methylthiazol-2-amine]
> 1000	0.01 to 25	CCc1nc2ccc(N3CCC(NC(=O)OC(C)(C)C)CC3)nn2c1N(C)c1nc(-c2ccc(F)cc2)cs1 [Cpd 81, tert-butyl 1-(2-ethyl-3-((4-(4-fluorophenyl)thiazol-2-yl)(methyl)amino)imidazo[1,2-b]pyridazin-6-yl)piperidin-4-ylcarbamate]
> 1000	0.01 to 25	CCc1nc2ccc(N3CC4CN(S(=O)(=O)CCCCl)CC4C3)nn2c1N(C)c1nc(-c2ccc(F)cc2)cs1 (stereo not drawn) [Cpd 125, N-(6-(5-(3-chloropropyl-sulfonyl)-hexahydropyrrolo [3,4-c]pyrrol-2(1H)-yl)-2-ethylimidazo[1,2-b]pyridazin-3-yl)-4-(4-fluorophenyl)-N-methylthiazol-2-amine]
> 1000	25 to 50	CCc1nc2ccc(N3CCCC(CN)C3)nn2c1N(C)c1nc(-c2ccc(F)cc2)cs1 (stereo not drawn) [Cpd 101, N-(6-(3-(aminomethyl)piperidin-1-yl)-2-ethylimidazo[1,2-b]pyridazin-3-yl)-4-(4-fluorophenyl)-N-methylthiazol-2-amine]
500 to 1000	0.01 to 25	CCc1nc2ccc(C3CCN(CC(=O)N(C)C)CC3)nn2c1N(C)c1nc(-c2ccc(F)cc2)cs1 [Cpd 202, 2-(4-(2-ethyl-3-((4-(4-fluorophenyl)thiazol-2-yl)(methyl)amino)imidazo[1,2-b]pyridazin-6-yl)piperidin-1-yl)-N,N-dimethylacetamide]
> 1000	0.01 to 25	CCc1nc2ccc(N3CC4CN(S(C)(=O)=O)CC4C3)nn2c1N(C)c1nc(-c2ccc(F)cc2)cs1 (stereo not drawn) [Compound 123, N-(2-ethyl-6-(5-(methylsulfonyl)hexahydropyrrolo[3,4-c]pyrrol-2(1H)-yl)imidazo[1,2-b]pyridazin-3-yl)-4-(4-fluorophenyl)-N-methylthiazol-2-amine]
> 1000	0.01 to 25	CCc1nc2ccc(N3CCCN(S(C)(=O)=O)CC3)nn2c1N(C)c1nc(-c2ccc(F)cc2)cs1 [Cpd 116, N-(2-ethyl-6-(4-(methylsulfonyl)-1,4-diazepan-1-yl)imidazo[1,2-b]pyridazin-3-yl)-4-(4-fluorophenyl)-N-methylthiazol-2-amine]
> 1000	0.01 to 25	CCc1nc2ccc(N3CCC(C(=O)O)CC3)nn2c1N(C)c1nc(-c2ccc(F)cc2)cs1 [Compound 96, 1-(2-ethyl-3-((4-(4-fluorophenyl)thiazol-2-yl)(methyl)amino)imidazo[1,2-b]pyridazin-6-yl)piperidine-4-carboxylic acid]
